Measured values published in patent US20260256925A1, “INDAZOLE DERIVATIVES AS ESTROGEN RECEPTOR DEGRADERS” (REGENTS OF THE UNIVERSITY OF MICHIGAN, priority 2022, published 2026).
pIC50: −log10 of the molar value.

Tests used:
[1] = molecular target: T1, ERα_LBD (GST) (Homo sapiens, UniProt P03372); assay: IC50 measurements for binding to ERα_LBD (GST), LanthaScreen TR-FRET ERα competitive binding assay; settings: Fluormone ES2 Green tracer, 60 min, read-out: ERα HTRF IC50
T1 construct: ERα_LBD (GST) protein: 4 nM; purchased ThermoFisher A15887
T1 sequence (P03372 311-547 limits assumed): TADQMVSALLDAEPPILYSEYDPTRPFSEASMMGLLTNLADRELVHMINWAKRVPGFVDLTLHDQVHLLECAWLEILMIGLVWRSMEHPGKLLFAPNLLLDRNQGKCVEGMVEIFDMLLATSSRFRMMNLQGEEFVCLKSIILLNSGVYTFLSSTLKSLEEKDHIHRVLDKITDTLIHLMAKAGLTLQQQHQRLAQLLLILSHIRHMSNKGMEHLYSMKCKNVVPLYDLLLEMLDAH
Method: In vitro Assay: IC50 Measurements for binding to ERα_LBD (GST)·
Final assay conditions: • 1. ERα_LBD (GST) protein: 4 nM • 2. Tb Anti-GST: 2 nM • 3. Fluormone ES2 Green tracer: 3 nM • 4. Incubation time: 60 min • 5. DMSO: 1% • 6. Assay buffer: Adding 1M DTT to Nuclear receptor Buffer K for final 5 mM DTT. • 7. ZPE: 1% DMSO • 8. HPE: 1 μM ARV_471 • 9. LanthaScreen® TR-FRET ERα Competitive Binding Assay (ThermoFisher, #A^15887)
100× Compound preparation: • 1) Cherry pick 2 μL 10 mM compound stock to column 1 of a 384 intermediate plate • 2) Add 18 μL DMSO to column 1 to dilute compound to 1 mM. • 3) Transfer 10 μL 1 mM compound to column 1 of a LDV plate. • 2) Add 6 μl DMSO to column 2-10 of the LDV plate. • 3) Compounds undergo 3-fold serial dilution (3 μL+6 μL) in DMSO. • 4) Transfer 120 nL compound solution to assay plate.
Prepare complete nuclear receptor buffer K by adding 1 M DTT to nuclear receptor buffer K for a final concentration of 5 mM DTT. Complete nuclear receptor buffer K must be prepared fresh daily. Prepare 2× protein solution using complete nuclear receptor buffer K containing 8 nM ERα_LBD (GST) and 4 nM Tb Anti-GST. Then, prepare 2× Fluormone ES2 Green tracer (6 nM) using complete nuclear receptor buffer K. Add 6 μL 2× Fluormone ES2 green tracer into a compound plate (PerkinElmer 6008289) by dragonfly with one-tips-addition. Subsequently, add 6 μL 2× protein solution into the plate. Briefly and gently mix the 384-well plate on a plate shaker and incubate at room temperature protected from light for 60 min. The plate is sealed with a cover to minimize evaporation. Read the plate at wavelengths of 520 nm and 495 nm. Calculate the TR-FRET ratio by dividing the emission signal at 520 nm by the emission signal at 495 nm. Generate a binding curve by plotting the emission ratio vs. the log [ligand]. To determine the IC50 value, fit the data using XL-fit for a sigmoidal dose-response.

[2] = molecular target: T2, ER (Homo sapiens, UniProt P03372); assay: In-cell Western (ICW) ER degradation assay in MCF-7 cells; assay type: cell-based; settings: for Dmax: MCF7, read-out: ER MCF7 ICW Dmax (%); for DC50: read-out: ER MCF7 ICW DC50
T2 construct: endogenous in cells; probably T47D or MCF-7
T2 sequence (P03372 1-595): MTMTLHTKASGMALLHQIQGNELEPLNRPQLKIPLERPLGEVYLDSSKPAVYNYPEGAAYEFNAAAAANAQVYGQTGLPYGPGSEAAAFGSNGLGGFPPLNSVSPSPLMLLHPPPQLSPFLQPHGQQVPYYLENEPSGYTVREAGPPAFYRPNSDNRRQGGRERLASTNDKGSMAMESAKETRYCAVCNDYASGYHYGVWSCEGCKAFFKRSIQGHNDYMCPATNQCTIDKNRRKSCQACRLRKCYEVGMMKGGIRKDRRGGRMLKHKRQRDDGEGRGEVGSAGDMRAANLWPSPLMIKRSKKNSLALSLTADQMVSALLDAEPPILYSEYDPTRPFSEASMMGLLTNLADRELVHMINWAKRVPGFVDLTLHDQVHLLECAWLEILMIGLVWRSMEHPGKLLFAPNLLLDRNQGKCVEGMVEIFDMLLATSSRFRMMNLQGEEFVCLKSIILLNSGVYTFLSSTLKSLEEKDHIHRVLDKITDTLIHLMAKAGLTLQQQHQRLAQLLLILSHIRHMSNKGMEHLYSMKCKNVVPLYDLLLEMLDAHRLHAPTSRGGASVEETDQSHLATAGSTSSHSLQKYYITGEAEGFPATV

[3] = molecular target: T2, ER; assay: In-cell Western (ICW) ER degradation assay in T47D cells; assay type: cell-based; settings: for Dmax: T47D, read-out: ER T47D ICW Dmax (%)
[4] = system: MCF-7 cells; assay: CellTiter-Glo (CTG) cell proliferation assay in MCF-7 cells; assay type: cell-based; settings: Homo sapiens, MCF7, 144 h, Day 6
From the text: (§1) CellTiter-Glo® (CTG) assays in MCF-7 and T47D cell lines.
(§2) In vitro Assay: MCF-7 and T47D CTG assay

[5] = system: T47D cells; assay: CellTiter-Glo (CTG) cell proliferation assay in T47D cells; assay type: cell-based; settings: Homo sapiens, 144 h, Day 6
From the text: as §1, §2

[6] = molecular target: T3, CRBN/DDB1 (Homo sapiens, UniProt Q96SW2); assay type: binding; settings: HTRF, Cy5-labeled Thalidomide probe
T3 construct: purchased Wuxi RP210521GA
Method: The binding potency was determined using HTRF assay technology (Perkin Elmer). Compounds were serially diluted in DMSO and 0.2 μL volume was transferred to white 384-well plate.

T3 sequence (Q96SW2 whole entry): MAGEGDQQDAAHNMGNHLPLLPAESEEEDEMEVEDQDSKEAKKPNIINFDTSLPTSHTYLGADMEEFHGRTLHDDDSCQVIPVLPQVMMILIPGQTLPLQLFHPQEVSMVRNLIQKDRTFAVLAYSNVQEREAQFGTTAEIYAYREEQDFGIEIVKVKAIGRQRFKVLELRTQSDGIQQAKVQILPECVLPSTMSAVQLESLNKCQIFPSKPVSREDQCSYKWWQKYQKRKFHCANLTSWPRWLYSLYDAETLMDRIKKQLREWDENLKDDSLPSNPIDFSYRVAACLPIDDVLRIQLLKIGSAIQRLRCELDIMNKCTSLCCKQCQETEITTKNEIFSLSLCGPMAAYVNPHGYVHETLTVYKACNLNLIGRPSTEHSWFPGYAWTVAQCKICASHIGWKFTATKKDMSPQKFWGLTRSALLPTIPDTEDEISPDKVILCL
T3 sequence (Q16531 whole entry partner): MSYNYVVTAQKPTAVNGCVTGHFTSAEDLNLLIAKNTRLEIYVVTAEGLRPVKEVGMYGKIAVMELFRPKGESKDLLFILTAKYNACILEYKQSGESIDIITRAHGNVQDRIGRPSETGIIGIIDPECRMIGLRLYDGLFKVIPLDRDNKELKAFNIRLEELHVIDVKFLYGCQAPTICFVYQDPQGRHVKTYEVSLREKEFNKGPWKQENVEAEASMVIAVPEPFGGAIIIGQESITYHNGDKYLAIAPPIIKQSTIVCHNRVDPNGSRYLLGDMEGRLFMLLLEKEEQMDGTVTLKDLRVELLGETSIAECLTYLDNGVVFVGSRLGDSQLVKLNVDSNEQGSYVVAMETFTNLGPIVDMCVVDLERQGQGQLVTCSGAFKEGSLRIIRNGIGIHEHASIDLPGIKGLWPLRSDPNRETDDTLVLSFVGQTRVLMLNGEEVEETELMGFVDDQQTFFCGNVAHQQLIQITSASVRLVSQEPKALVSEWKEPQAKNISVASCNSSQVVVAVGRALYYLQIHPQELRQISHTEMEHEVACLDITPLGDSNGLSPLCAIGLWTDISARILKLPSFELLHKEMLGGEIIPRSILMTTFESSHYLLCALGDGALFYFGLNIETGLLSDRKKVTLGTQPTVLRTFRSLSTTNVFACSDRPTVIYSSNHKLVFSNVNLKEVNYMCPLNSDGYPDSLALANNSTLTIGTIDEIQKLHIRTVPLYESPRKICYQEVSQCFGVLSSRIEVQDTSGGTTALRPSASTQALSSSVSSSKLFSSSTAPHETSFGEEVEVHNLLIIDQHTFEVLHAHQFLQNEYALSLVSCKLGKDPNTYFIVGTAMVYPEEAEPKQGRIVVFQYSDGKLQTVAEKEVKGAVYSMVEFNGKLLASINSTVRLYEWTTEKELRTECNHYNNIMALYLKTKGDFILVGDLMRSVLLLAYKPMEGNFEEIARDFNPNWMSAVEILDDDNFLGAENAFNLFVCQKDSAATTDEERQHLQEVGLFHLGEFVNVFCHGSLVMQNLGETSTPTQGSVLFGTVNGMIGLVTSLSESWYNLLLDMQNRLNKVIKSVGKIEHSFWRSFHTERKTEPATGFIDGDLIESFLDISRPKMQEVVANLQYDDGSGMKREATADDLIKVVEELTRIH

Row | SMILES | pIC50 [1] | Dmax [2] [%] | DC50 ([2]; MCF-7 cells, 16 hrs) [nM] | DC50 ([3]; T47D cells, 16 hrs) [nM] | Dmax ([3]; T47D cells, 16 hrs) [%] | pIC50 [4] | pIC50 [5] | pIC50 [6] | ER MCF7 ICW Dmax (%) ([2]; MCF-7 cells, 16 hrs) | ER T47D ICW Dmax (%) ([3]; T47D cells, 16 hrs) | Dmax [3] [%]
1 | C[C@@H]1Cc2c(ccc3[nH]ncc23)C(c2ccc(N3CCC4(CC3)CC(CN3CCN5c6ccc7c(c6OC[C@H]5C3)CN([C@H]3CCC(=O)NC3=O)C7=O)C4)nc2)N1CC(F)(F)F (stereo in doubt) [Compound A26, (S)-3-((R)-7-((7-(5-((6R,8R)-8-methyl-7-(2,2,2-trifluoroethyl)-6,7,8,9-tetrahydro-3H-pyrazolo[4,3-f]isoquinolin-6-yl)pyridin-2-yl)-7-azaspiro[3.5]nonan-2-yl)methyl)-1-oxo-1,3,5,5a,6,7,8,9-octahydro-2H-pyrazino[1′,2′: 4,5][1,4]oxazino[2,3-e]isoindol-2-yl)piperidine-2,6-dione] | > 8.00 | > 75 | < 1 | < 1 | > 75 | 7.30 to 8.00 | 7.30 to 8.00 |  |  |  | 
2 | COc1cc(N2CCC(CN3CCN4c5ccc6c(c5OC[C@H]4C3)CN(C3CCC(=O)NC3=O)C6=O)CC2)ccc1[C@@H]1c2ccc3[nH]ncc3c2C[C@@H](C)N1CC(F)F (stereo partly drawn) [Compound A6, 3-((R)-7-((1-(4-((6S,8R)-7-(2,2-difluoroethyl)-8-methyl-6,7,8,9-tetrahydro-3H-pyrazolo[4,3-f]isoquinolin-6-yl)-3-methoxyphenyl)piperidin-4-yl)methyl)-1-oxo-1,3,5,5a,6,7,8,9-octahydro-2H-pyrazino[1′,2′:4,5][1,4]oxazino[2,3-e]isoindol-2-yl)piperidine-2,6-dione] |  |  | < 1 | < 1 |  | > 8.00 | > 8.00 | 6.30 to 7.30 | B (“B”: >50% and <75%) | B (“B”: >50% and <75%) | 
3 | C[C@@H]1Cc2c(ccc3[nH]ncc23)[C@H](c2ccc(N3CCC(CN4CCN5c6ccc7c(c6OC[C@H]5C4)CN([C@H]4CCC(=O)NC4=O)C7=O)CC3)nc2)N1CC(F)(F)F [Compound A19, (S)-3-((R)-7-((1-(5-((6R,8R)-8-methyl-7-(2,2,2-trifluoroethyl)-6,7,8,9-tetrahydro-3H-pyrazolo[4,3-f]isoquinolin-6-yl)pyridin-2-yl)piperidin-4-yl)methyl)-1-oxo-1,3,5,5a,6,7,8,9-octahydro-2H-pyrazino[1′,2′: 4,5][1,4]oxazino[2,3-e]isoindol-2-yl)piperidine-2,6-dione] | > 8.00 | 50 to 75 | < 1 | < 1 | 50 to 75 | > 8.00 | > 8.00 |  |  |  | 
4 | C[C@@H]1Cc2c(ccc3[nH]ncc23)[C@H](c2ccc(N3CCC4(CC3)CC(CN3CCN5c6ccc7c(c6OC[C@H]5C3)CN([C@H]3CCC(=O)NC3=O)C7=O)CO4)nc2)N1CC(F)(F)F (stereo partly drawn) [Compound A21, (3S)-3-((5aR)-7-((8-(5-((6R,8R)-8-methyl-7-(2,2,2-trifluoroethyl)-6,7,8,9-tetrahydro-3H-pyrazolo[4,3-f]isoquinolin-6-yl)pyridin-2-yl)-1-oxa-8-azaspiro[4.5]decan-3-yl)methyl)-1-oxo-1,3,5,5a,6,7,8,9-octahydro-2H-pyrazino[1′,2′: 4,5][1,4]oxazino[2,3-e]isoindol-2-yl)piperidine-2,6-dione] | > 8.00 | > 75 | < 1 | < 1 | > 75 | > 8.00 | 7.30 to 8.00 |  |  |  | 
5 | C[C@@H]1Cc2c(ccc3[nH]ncc23)[C@@H](c2ccc(N3CC4(CCC(CN5CCN6c7ccc8c(c7OC[C@H]6C5)CN([C@H]5CCC(=O)NC5=O)C8=O)CC4)C3)nc2)N1CC(F)(F)F [Compound A17, (S)-3-((R)-7-((2-(5-((6S,8R)-8-methyl-7-(2,2,2-trifluoroethyl)-6,7,8,9-tetrahydro-3H-pyrazolo[4,3-f]isoquinolin-6-yl)pyridin-2-yl)-2-azaspiro[3.5]nonan-7-yl)methyl)-1-oxo-1,3,5,5a,6,7,8,9-octahydro-2H-pyrazino[1′,2′: 4,5][1,4]oxazino[2,3-e]isoindol-2-yl)piperidine-2,6-dione] | > 8.00 | > 75 | < 1 | < 1 | > 75 | < 7.30 | 7.30 to 8.00 |  |  |  | 
6 | C[C@@H]1Cc2c(ccc3[nH]ncc23)[C@@H](c2ccc(N3CCC(CN4CCN5c6cc7c(cc6OC[C@@H]5C4)C(=O)N([C@H]4CCC(=O)NC4=O)C7)CC3)nc2)N1CC(F)(F)F [Compound A24, (S)-3-((S)-3-((1-(5-((6S,8R)-8-methyl-7-(2,2,2-trifluoroethyl)-6,7,8,9-tetrahydro-3H-pyrazolo[4,3-f]isoquinolin-6-yl)pyridin-2-yl)piperidin-4-yl)methyl)-8-oxo-1,2,3,4,4a,5,8,10-octahydro-9H-pyrazino[1′,2′: 4,5][1,4]oxazino[2,3-f]isoindol-9-yl)piperidine-2,6-dione] | > 8.00 | 50 to 75 | < 1 | < 1 |  | < 7.30 | < 7.30 |  |  |  | > 75
